Where no end group is shown, it is not given here. [ ]: non-standard residue; d: D form.
Test system: transgenic ALS mice (tg G93R SOD1 mice)
Assay: Treatment studies in transgenic ALS mice: behavioral and motor tests (open field, SHIRPA, pole, hind-leg grip strength, rotarod, hind-leg spread) and histological analyses
Type: in vivo
Conditions: two treatment studies
Method: To analyze the anti-inflammatory effect of RD2RD2 as a potential therapeutic for treating ALS, two treatment studies were carried out in transgenic ALS mice (tg G93R SOD1 mice).

## ptlhthnrrrrrptlhthnrrrrr ([dP][dT][dL][dH][dT][dH][dN][dR][dR][dR][dR][dR][dP][dT][dL][dH][dT][dH][dN][dR][dR][dR][dR][dR]) [RD2RD2]
Behavioral and motor tests
  disease onset: delays disease onset
  disease progression: slows disease progression
Histological analyses
  inflammatory reactions: reduces inflammatory reactions
